Patent US11174303B2, “Single-chain insulin analogues stabilized by a fourth disulfide bridge” (Case Western Reserve University, priority 2017, dated 2021)
Positions of bridges follow the written chain, without caps; N, C: chain ends. No end group written: not given here.

Legend:
[1] = biological target: A isoform of the insulin receptor (Homo sapiens, UniProt P06213); type: binding
Experimental: The receptor binding affinity of analogue 81-04 and analogue 4SS 81-04 was also determined. The affinity of 4SS 81-04 for the A isoform of the insulin receptor was determined to be 120±20 percent relative to human insulin (and may in fact be the same as wild type human insulin given the error present; data not shown). […] Such impaired binding to IGF-1R is desirable from the perspective of potential carcinogenesis on long-term use.

[2] = tested on: Sprague-Dawley rats made diabetic with streptozotocin; assay: Stability under extreme conditions (95° C. for 30 min, gentle agitation), read out as glucose lowering after IV bolus in diabetic rats; type: in vivo, rat
Experimental: Heat stressed insulin was given gentle agitation at 95° C. for 30 min. Doses for SCIs (nominally 1 IU/rat IV) were calculated in equivalent nanomoles protein/μl.
FIG. 3C is a graph of mean blood-glucose concentrations over time in Sprague-Dawley rats made diabetic with streptozotocin after IV bolus injection of fresh or heat-stressed SCIs on gentle agitation at 95° C. for 30 min (N=4; mean glycemia ca. 400 mg/dl). Symbol code: (filled triangle, ▴) fresh SCI-1; (open triangle, ? ) heated SCI-1; (filled square, ? ) fresh insulin lispro as positive control and (filled circle, ? ) Lilly diluent (i.e., buffer only) as negative control. Doses for SCIs (nominally 1 IU/rat IV) were calculated in equivalent nanomoles protein/μl.
FIG. 3D is a graph of the change in blood-glucose concentrations normalized to initial blood glucose concentration over time in Sprague-Dawley rats made diabetic with streptozotocin after IV bolus injection of fresh or heat-stressed SCIs on gentle agitation at 95° C. for 30 min (N=4; mean glycemia ca. 400 mg/dl). Symbol code: (filled triangle, ▴) fresh SCI-1; (open triangle, ? ) heated SCI-1; (filled square, ? ) fresh insulin lispro as positive control; and (filled circle, ? ) Lilly diluent (i.e., buffer only) as negative control. Doses for SCIs (nominally 1 IU/rat IV) were calculated in equivalent nanomoles protein/μl.
To evaluate the biological activity, potency, duration of signaling, and thermal stability of the analogues in an animal model, male Sprague-Dawley rats (mean body mass ˜300 grams) were rendered diabetic by treatment with streptozotocin (STZ). […] A control was provided by injection of protein-free Lilly diluent (obtained from Eli Lilly and Co.) composed of 16 mg glycerin, 1.6 mg meta-cresol, 0.65 mg phenol, and 3.8 mg sodium phosphate pH 7.4. The activity of SCI-1 was evaluated in relation to that of Humalog® (U-100 strength taken from an unexpired commercial vial). […] Blood was obtained from the clipped tip of the tail at time 0 and every 10 minutes up to 360 min. […]

[3] = in vivo

Chain of A isoform of the insulin receptor (P06213 28-746 isoform P06213-2 limits assumed): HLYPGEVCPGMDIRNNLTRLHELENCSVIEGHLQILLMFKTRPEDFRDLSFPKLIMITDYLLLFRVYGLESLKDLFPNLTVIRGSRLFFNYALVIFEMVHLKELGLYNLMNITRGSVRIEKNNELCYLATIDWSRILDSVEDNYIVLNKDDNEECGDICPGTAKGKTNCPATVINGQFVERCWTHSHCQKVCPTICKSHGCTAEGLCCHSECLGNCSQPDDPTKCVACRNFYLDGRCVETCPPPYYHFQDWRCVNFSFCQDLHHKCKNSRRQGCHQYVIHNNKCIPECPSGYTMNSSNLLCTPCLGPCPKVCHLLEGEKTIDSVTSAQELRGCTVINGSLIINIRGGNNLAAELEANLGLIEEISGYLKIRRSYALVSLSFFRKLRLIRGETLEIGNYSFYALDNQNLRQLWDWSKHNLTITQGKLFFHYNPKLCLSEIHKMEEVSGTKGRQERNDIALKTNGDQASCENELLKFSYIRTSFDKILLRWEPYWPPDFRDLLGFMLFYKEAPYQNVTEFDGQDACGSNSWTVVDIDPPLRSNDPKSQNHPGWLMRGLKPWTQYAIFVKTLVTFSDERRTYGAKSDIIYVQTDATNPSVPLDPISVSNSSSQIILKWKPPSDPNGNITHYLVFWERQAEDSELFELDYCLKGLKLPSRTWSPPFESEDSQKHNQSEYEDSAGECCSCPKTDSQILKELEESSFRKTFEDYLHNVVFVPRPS
Chain of A isoform of the insulin receptor (P06213 763-1382 partner limits assumed): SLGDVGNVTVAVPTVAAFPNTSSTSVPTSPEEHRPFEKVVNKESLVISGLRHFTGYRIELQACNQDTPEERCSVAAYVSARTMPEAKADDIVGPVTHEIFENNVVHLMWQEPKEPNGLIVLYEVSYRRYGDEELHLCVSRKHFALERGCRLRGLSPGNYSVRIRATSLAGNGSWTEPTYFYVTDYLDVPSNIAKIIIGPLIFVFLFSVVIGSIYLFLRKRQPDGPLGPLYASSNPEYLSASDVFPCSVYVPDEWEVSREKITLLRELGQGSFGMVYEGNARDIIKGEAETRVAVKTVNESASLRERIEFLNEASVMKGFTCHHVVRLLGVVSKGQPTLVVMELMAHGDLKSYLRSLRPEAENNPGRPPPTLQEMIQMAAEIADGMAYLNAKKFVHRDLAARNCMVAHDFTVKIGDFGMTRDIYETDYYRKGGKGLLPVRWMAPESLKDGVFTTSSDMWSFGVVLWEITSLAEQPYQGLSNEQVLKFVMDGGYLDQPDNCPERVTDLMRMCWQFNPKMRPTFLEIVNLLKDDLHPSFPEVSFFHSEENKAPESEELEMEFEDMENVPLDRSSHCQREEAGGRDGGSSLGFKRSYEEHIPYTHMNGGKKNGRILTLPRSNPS

FVNCHLCGSHLVEALYLVCGERGFFYTDPTEEGPRRGIVEQCCHSCCSLEQLENYCN (disulfide 4-46, 7-43, 19-56, 42-47) [SCI-2]
affinity for the A isoform of the insulin receptor relative to human insulin [1]: 120±20%

SCI-1 without 4SS: Preliminary version of SCI-1 lacking the 4th disulfide bridge, with Gln at position B4 and Ile at position A10 (FVNQHLCGSHLVEALYLVCGERGFFYTDPTEEGPRRGIVEQCCHSICSLEQLENYCN; disulfide (positions not given here); ends not checked)
decrement in activity of heated versus fresh sample at 240 min ([2]; 95° C. for 30 min, time point 240 min): ca. 25%
decrement in activity of heated versus fresh sample at 300 min ([2]; 95° C. for 30 min, time point 300 min): ~40%
activity after 30 min at 95° C. versus fresh sample ([2]; heat-stressed with gentle agitation at 95° C. for 30 min, nominally 1 IU/rat, N=4): largely (but incompletely) maintained

FVNCHLCGSHLVEALYLVCGERGFFYTPRTEEGSRRSRGIVEQCCRSCCSLYQLENYCN (disulfide 4-48, 7-45, 19-58, 44-49) [SCI-1]
PK on conventional SQ injection [3]: prolonged PK
